Results reported in US10975068B2, “6-aminopyridin-3-yl thiazoles as modulators of RORγT” (Janssen Pharmaceutica NV, priority 2016, dated 2021).
pIC50, pKd: −log10 of the molar value. Like-named read-outs stand apart in the source and are kept apart here.

Assays:
full-length human RORγt = full-length human RORγt (Homo sapiens (Human), UniProt P51449); assay: RORγt (full-length human) reporter assay, Conditions B or C; assay type: cell-based; conditions: for RORγt (FL) Reporter Assay B or C, % inhibition (value marked *): marked *: footnote not given; for inhibition at 3 µM: at 3 μM compound concentration, read-out: RORγt (FL) Reporter Assay B or C, % inhibition; for pIC50: read-out: RORγt (FL) Reporter Assay B or C, IC50
Sequence of full-length human RORγt (P51449 other isoform, or with tags, fused parts or gaps): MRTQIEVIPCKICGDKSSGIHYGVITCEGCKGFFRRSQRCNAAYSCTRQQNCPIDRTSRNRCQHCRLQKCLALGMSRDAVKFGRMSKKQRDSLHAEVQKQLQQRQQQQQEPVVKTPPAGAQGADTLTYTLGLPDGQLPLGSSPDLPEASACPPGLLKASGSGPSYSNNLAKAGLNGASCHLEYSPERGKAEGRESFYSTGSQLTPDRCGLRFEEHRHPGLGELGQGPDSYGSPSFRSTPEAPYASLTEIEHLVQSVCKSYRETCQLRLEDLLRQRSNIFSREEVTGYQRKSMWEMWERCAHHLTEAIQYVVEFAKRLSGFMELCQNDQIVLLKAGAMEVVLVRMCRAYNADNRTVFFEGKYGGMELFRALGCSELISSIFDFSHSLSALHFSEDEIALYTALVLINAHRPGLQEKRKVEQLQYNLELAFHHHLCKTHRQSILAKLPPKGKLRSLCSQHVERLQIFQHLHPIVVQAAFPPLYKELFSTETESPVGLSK
Method in brief: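 Readout is dual luciferase: firefly (GAL4-driven) normalized to DMSO-only and saturating-reference controls, then to CMV-Renilla. Full-length human RORγt fused to GAL4-DBD was transiently expressed in HEK293T; compound exposure ran overnight (16-20 h) starting 4-6 h after transfection, final FBS 1.3%, DMSO 0.1%.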

[1] = biological target: human RORγt ligand binding domain (RORγt LBD) (Homo sapiens (Human), UniProt P51449); assay: RORγt ThermoFluor® assay (thermal shift binding); conditions: read-out: ThermoFluor® Assay, Kd
Sequence of human RORγt ligand binding domain (RORγt LBD) (P51449 other isoform, or with tags, fused parts or gaps): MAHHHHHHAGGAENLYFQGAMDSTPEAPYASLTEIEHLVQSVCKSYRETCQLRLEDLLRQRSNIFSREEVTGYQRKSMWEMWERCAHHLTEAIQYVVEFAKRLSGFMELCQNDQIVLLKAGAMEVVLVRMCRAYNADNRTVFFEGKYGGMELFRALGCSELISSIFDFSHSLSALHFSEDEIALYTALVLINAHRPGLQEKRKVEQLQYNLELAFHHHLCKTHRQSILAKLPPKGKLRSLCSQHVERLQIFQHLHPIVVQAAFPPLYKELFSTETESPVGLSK
Method in brief: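 Binding was inferred from thermal stabilisation (ΔTm) of the E. coli-expressed RORγt LBD (0.065 mg/mL), monitored by 1,8-ANS (60 μM) emission at 500 nm during a 1 °C/min ramp. Buffer was Hepes 100 mM pH 7.0 with NaCl, GSH and Tween-20.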

SMILES | RORγt (FL) Reporter Assay B or C, % inhibition (value marked *) (full-length human RORγt; Conditions B or C) | IC50 (full-length human RORγt; RORγt (FL) Reporter Assay B or C, IC50 (μM), Conditions B or C) | pKd [1] | inhibition at 3 µM (full-length human RORγt) | pIC50 (full-length human RORγt) | pIC50 (full-length human RORγt; Conditions B or C) | RORγt (FL) Reporter Assay B or C, % inhibition (value marked ****) (full-length human RORγt; Conditions B or C, marked ****: footnote not shown)
C[C@H](Nc1cc(C(F)(F)F)c(-c2sc(C(=O)N[C@@H]3COC[C@H]3O)nc2C(=O)N2C3CCC2CC3)cn1)C(F)(F)F [Example 150, 4-((1s,4s)-7-Azabicyclo[2.2.1]heptane-7-carbonyl)-N-((3R,4S)-4-hydroxytetrahydrofuran-3-yl)-5-(4-(trifluoromethyl)-6-(((1S)-2,2,2-trifluoro-1-methyl-ethyl)amino)-3-pyridyl)thiazole-2-carboxamide] | 111* % | 0.035 µM | 8.49 | – | – | – | –
CC[C@H](Nc1cc(C(F)F)c(-c2sc(C(=O)N[C@@H]3CC[C@@H](O)C3)nc2C(=O)N2CC(F)(F)C[C@@H]2C)cn1)C(F)(F)F [Example 424, 4-[(2S)-4,4-Difluoro-2-methyl-pyrrolidine-1-carbonyl]-5-[4-(difluoromethyl)-6-[[(1S)-1-(trifluoromethyl)propyl]amino]-3-pyridyl]-N-[(1R,3R)-3-hydroxycyclopentyl]thiazole-2-carboxamide] | – | – | 9.64 | 98% | 7.20 | – | –
CC(C)(O)CNC(=O)c1nc(C(=O)N2C3CCC2CC3)c(-c2cnc(NC(C3CC3)C3CC3)cc2C(F)(F)F)s1 [Example 137, 4-((1s,4s)-7-Azabicyclo[2.2.1]heptane-7-carbonyl)-5-(6-((dicyclopropylmethyl)amino)-4-(trifluoromethyl)pyridin-3-yl)-N-(2-hydroxy-2-methypropyl)thiazole-2-carboxamide] | 97* % | – | 8.96 | – | – | 7.92 | –
C[C@H]1CC(F)(F)CN1C(=O)c1nc(C(=O)NCC(C)(C)O)sc1-c1cnc(NCC2(C(F)(F)F)CCC2)cc1C(F)(F)F [Example 118, (S)-4-(4,4-Difluoro-2-methylpyrrolidine-1-carbonyl)-N-(2-hydroxy-2-methylpropyl)-5-(4-(trifluoromethyl)-6-(((1-(trifluoromethyl)cyclobutyl)methyl)amino)pyridin-3-yl)thiazole-2-carboxamide] | – | – | 9.37 | – | – | 8.15 | 109**** %
C[C@@H](O)[C@@H](C)NC(=O)c1nc(C(=O)N2CCC[C@@H]2C)c(-c2cnc(NC(C)(C)C)cc2C(F)(F)F)s1 (relative stereo) [Example 237, 5-(6-(tert-Butylamino)-4-(trifluoromethyl)pyridin-3-yl)-N-((2R*,3R*)-3-hydroxybutan-2-yl)-4-((S)-2-methylpyrrolidine-1-carbonyl)thiazole-2-carboxamide] | 101* % | – | 8.64 | – | – | 7.51 | –
CCNC(=O)c1nc(C(=O)N2CCC[C@@H]2C)c(-c2cnc(NC(C)(C)C)cc2C(F)(F)F)s1 [Example 309, (S)-5-(6-(tert-Butylamino)-4-(trifluoromethyl)pyridin-3-yl)-N-ethyl-4-(2-methylpyrrolidine-1-carbonyl)thiazole-2-carboxamide] | – | – | 7.80 | 95% | 7.89 | – | –
CC[C@H](Nc1cc(C(F)F)c(-c2sc(C(=O)N3CC4(COC4)C3)nc2C(=O)N2CCC[C@@H]2C)cn1)C(F)(F)F [Example 384, [5-[4-(Difluoromethyl)-6-[[(1S)-1-(trifluoromethyl)propyl]amino]-3-pyridyl]-2-(6-oxa-2-azaspiro[3.3]heptane-2-carbonyl)thiazol-4-yl]-[(2S)-2-methylpyrrolidin-1-yl]methanone] | – | – | 8.30 | 98% | 7.15 | – | –
CC[C@H](Nc1cc(C(F)(F)F)c(-c2sc(C(=O)NCC(C)(C)O)nc2C(=O)N2CCCC[C@@H]2C)cn1)C(F)(F)F [Example 112, N-(2-Hydroxy-2-methylpropyl)-4-((S)-2-methylpiperidine-1-carbonyl)-5-(6-(((S)-1,1,1-trifluorobutan-2-yl)amino)-4-(trifluoromethyl)pyridin-3-yl)thiazole-2-carboxamide] | 110* % | – | 9.70 | – | – | 7.89 | –
C[C@H](NC(=O)c1nc(C(=O)N2C3CCC2CC3)c(-c2cnc(N[C@@H](C)C(F)(F)F)cc2C(F)F)s1)C(C)(C)O [Example 446, 4-((1s,4s)-7-Azabicyclo[2.2.1]heptane-7-carbonyl)-5-[4-(difluoromethyl)-6-[[(1S)-2,2,2-trifluoro-1-methyl-ethyl]amino]-3-pyridyl]-N-[(1S)-2-hydroxy-1,2-dimethyl-propyl]thiazole-2-carboxamide] | – | – | 7.89 | 108% | 6.74 | – | –
C[C@H]1CCCN1C(=O)c1nc(C(=O)NCC(C)(C)O)sc1-c1cnc(NCC2(C(F)(F)F)CCC2)cc1C(F)F [Example 274, 5-[4-(Difluoromethyl)-6-[[1-(trifluoromethyl)cyclobutyl]methylamino]-3-pyridyl]-N-(2-hydroxy-2-methyl-propyl)-4-[(2S)-2-methylpyrrolidine-1-carbonyl]thiazole-2-carboxamide] | – | – | 9.01 | 96% | 7.44 | – | –
C[C@H](Nc1cc(C(F)F)c(-c2sc(C(=O)N[C@H]3C[C@@H]3O)nc2C(=O)N2CCC[C@@H]2C)cn1)C(F)(F)F (single isomer, unassigned) [Example 158, 5-(4-(Difluoromethyl)-6-(((S)-1,1,1-trifluoropropan-2-yl)amino)pyridin-3-yl)-N-((1S*,2S*)-2-hydroxycyclopropyl)-4-((S)-2-methylpyrrolidine-1-carbonyl)thiazole-2-carboxamide] | 96* % | – | 7.77 | – | – | 6.51 | –
CC(C)(O)CNC(=O)c1nc(C(=O)N2C3CCC2CC3)c(-c2cnc(NC3CCCC3)cc2C(F)F)s1 [Example 46, 4-((1s,4s)-7-Azabicyclo[2.2.1]heptane-7-carbonyl)-5-(6-(cyclopentylamino)-4-(difluoromethyl)pyridin-3-yl)-N-(2-hydroxy-2-methylpropyl)thiazole-2-carboxamide] | 100* % | – | 8.38 | – | – | 7.54 | –
C[C@H](Nc1cc(C(F)F)c(-c2sc(C(=O)N[C@H](C)C(C)(C)O)nc2C(=O)N2CCC[C@@H]2C)cn1)C(F)(F)F [Example 200, 5-(4-(Difluoromethyl)-6-(((S)-1,1,1-trifluoropropan-2-yl)amino)pyridine-3-yl)-N—((R)-3-hydroxy-3-methylburan-2-yl)-4-((S)-2-methylpyrrolidine-1-carbonyl)thiazole-2-carboxamide] | 104* % | – | 7.92 | – | – | 6.70 | –
CC[C@H](Nc1cc(C(F)F)c(-c2sc(C(=O)N[C@H]3CC[C@H](O)C3)nc2C(=O)N2CCC[C@@H]2C)cn1)C(F)(F)F [Example 398, 5-[4-(Difluoromethyl)-6-[[(1S)-1-(trifluoromethyl)propyl]amino]-3-pyridyl]-N-[(1S,3S)-3-hydroxycyclopentyl]-4-[(2S)-2-methylpyrrolidine-1-carbonyl]thiazole-2-carboxamide] | – | – | 8.82 | 109% | 7.41 | – | –
C[C@H]1CCCN1C(=O)c1nc(C(=O)N[C@H](C)C(C)(C)O)sc1-c1cnc(NC2(C)CCC2)cc1C(F)F [Example 321, 5-(4-(Difluoromethyl)-6-((1-methylcyclobutyl)amino)pyridin-3-yl)-N—((R)-3-hydroxy-3-methylbutan-2-yl)-4-((S)-2-methylpyrrolidine-1-carbonyl)thiazole-2-carboxamide] | – | – | 8.28 | 87% | 7.00 | – | –
